Measurements published in publication PMC11845477, “Exploring the principles behind antibiotics with limited resistance” (Nature Communications, 2025).
Where a SMILES comes first, the peptide text is derived from it. Bridges are numbered along the chain shown (N, C = ends). [ ]: non-standard residue; d: D form. The star is where a group is joined. X2 = CC[C@H](C)CCCCC(=O)*; Dab = NCC[C@H](N)C(=O)O

What was measured:
[1] = tested on: P. aeruginosa ATCC BAA-3107 (SEN) and P. aeruginosa LESB58 (MDR); experiment: microbe, parasite or virus in culture; format: cell-based, Pseudomonas aeruginosa; details: for MIC: across three biological replicates
How it was run: (§1)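 Cation-adj. MHB2 (not for SCH79797); 11–16-step dilution series; 5 × 10^5 cells/mL; 37 °C, shaking, 18 h; duplicates. Growth by OD600; MIC at OD600 < 0.05. Relative MIC: evolved vs ancestor.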

[2] = tested on: K. pneumoniae ATCC 10031 (SEN) and K. pneumoniae ATCC 700603 (MDR); experiment: Adaptive laboratory evolution (ALE), relative MIC of evolved lines; format: cell-based, Klebsiella pneumoniae
How it was run: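 Ten parallel populations per antibiotic–ancestor pair were evolved in MHB at 37 °C, starting near 50% growth-inhibiting drug. Every 72 h they were passaged into 0.5–2.5× increasing concentrations, keeping the highest-drug well with OD600 > 0.2.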

[3] = tested on: A. baumannii ATCC 17978 (SEN) and A. baumannii ATCC BAA-1605 (MDR); experiment: microbe, parasite or virus in culture; format: cell-based, Acinetobacter baumannii; details: for MIC: across three biological replicates
How it was run: as §1

[4] = Pseudomonas aeruginosa, ATCCBAA3107, Pseudomonas aeruginosa ATCC BAA-3107 (PA-SEN)
[5] = Pseudomonas aeruginosa, ATCCBAA3107, Pseudomonas aeruginosa LESB 58 (PA-MDR)
[6] = KP-SEN (Klebsiella pneumoniae ATCC 10031), evolved line 1
[7] = KP-SEN (Klebsiella pneumoniae ATCC 10031), evolved line 2
[8] = KP-SEN (Klebsiella pneumoniae ATCC 10031), evolved line 2 adapted to the named antibiotic
[9] = KP-SEN (Klebsiella pneumoniae ATCC 10031), evolved line 3
[10] = KP-SEN (Klebsiella pneumoniae ATCC 10031), evolved line 4
[11] = KP-SEN (Klebsiella pneumoniae ATCC 10031), evolved line 6
[12] = KP-SEN (Klebsiella pneumoniae ATCC 10031), evolved line 6 adapted to the named antibiotic
[13] = KP-SEN (Klebsiella pneumoniae ATCC 10031), evolved line 8
[14] = KP-SEN (Klebsiella pneumoniae ATCC 10031), evolved line 9
[15] = KP-SEN, Klebsiella pneumoniae ATCC 10031, evolved line 5
[16] = KP-SEN, Klebsiella pneumoniae ATCC 10031, evolved line 7
[17] = Acinetobacter baumannii ATCC 17978 (AB-SEN), ancestor strain, sheet fig 2a
[18] = Acinetobacter baumannii, Acinetobacter baumannii ATCC 17978 (AB-SEN)
[19] = Acinetobacter baumannii, Acinetobacter baumannii ATCC BAA-1605 (AB-MDR)

O=c1ccc2ncc(=O)n3c2n1C[C@H]3CN1CCC(NCc2cc3c(cn2)OCCC3)CC1 [Gepotidacin]
MIC of ancestor ([1]; P. aeruginosa ATCC BAA 3107 (PA-SEN), ancestor strain, sheet fig 2a): 4 µg/mL
MIC of ancestor ([1]; P. aeruginosa LESB 58 (PA-MDR), ancestor strain, sheet fig 2a): 4 µg/mL
MIC of ancestor ([1]; PA-MDR, Pseudomonas aeruginosa LESB 58, ancestor strain): 4 µg/mL
MIC of ancestor ([1]; PA-SEN, Pseudomonas aeruginosa ATCC BAA 3107, ancestor strain): 4 µg/mL
MIC [1, 4]: 4 µg/mL
MIC [1, 5]: 4 µg/mL
Relative MIC [2, 6]: 2048
Relative MIC [2, 7]: 2048
Relative MIC (log10) [2, 8]: 3.311
Relative MIC [2, 9]: 1024
Relative MIC (log10) ([2]; KP-SEN (Klebsiella pneumoniae ATCC 10031), evolved line 3 adapted to the named antibiotic): 3.0103
Relative MIC [2, 10]: 1024
Relative MIC [2, 11]: 2048
Relative MIC (log10) [2, 12]: 3.311
Relative MIC (log10) ([2]; KP-SEN (Klebsiella pneumoniae ATCC 10031), evolved line 7 adapted to the named antibiotic): 3.311
Relative MIC [2, 13]: 1024
Relative MIC [2, 14]: 1024
Relative MIC ([2]; KP-SEN, Klebsiella pneumoniae ATCC 10031, evolved line 1 versus ancestor): 2048
Relative MIC ([2]; KP-SEN, Klebsiella pneumoniae ATCC 10031, evolved line 2 versus ancestor): 2048
Relative MIC ([2]; KP-SEN, Klebsiella pneumoniae ATCC 10031, evolved line 3 versus ancestor): 1024
Relative MIC ([2]; KP-SEN, Klebsiella pneumoniae ATCC 10031, evolved line 4 versus ancestor): 1024
Relative MIC ([2]; KP-SEN, Klebsiella pneumoniae ATCC 10031, evolved line 5 versus ancestor): 1024
Relative MIC ([2]; KP-SEN, Klebsiella pneumoniae ATCC 10031, evolved line 6 versus ancestor): 2048
Relative MIC ([2]; KP-SEN, Klebsiella pneumoniae ATCC 10031, evolved line 7 versus ancestor): 2048
Relative MIC ([2]; KP-SEN, Klebsiella pneumoniae ATCC 10031, evolved line 8 versus ancestor): 1024
Relative MIC ([2]; KP-SEN, Klebsiella pneumoniae ATCC 10031, evolved line 9 versus ancestor): 1024
Relative MIC [2, 15]: 1024
Relative MIC [2, 16]: 2048
MIC of ancestor ([3]; AB-SEN, Acinetobacter baumannii ATCC 17978, ancestor strain): 2 µg/mL
MIC of ancestor [3, 17]: 2 µg/mL
MIC [3, 18]: 2 µg/mL
MIC [3, 19]: 32 µg/mL

CN(C)c1cc(CNCC(C)(C)C)c(O)c2c1C[C@H]1C[C@H]3[C@H](N(C)C)C(O)=C(C(N)=O)C(=O)[C@@]3(O)C(O)=C1C2=O [Omadacycline]
MIC [1, 4]: > 32 µg/mL
MIC [1, 5]: > 32 µg/mL
Relative MIC [2, 6]: 128
Relative MIC (log10) ([2]; KP-SEN (Klebsiella pneumoniae ATCC 10031), evolved line 1 adapted to the named antibiotic): 2.107
Relative MIC [2, 7]: 128
Relative MIC (log10) [2, 8]: 2.107
Relative MIC [2, 9]: 64
Relative MIC [2, 10]: 64
Relative MIC (log10) ([2]; KP-SEN (Klebsiella pneumoniae ATCC 10031), evolved line 5 adapted to the named antibiotic): 2.107
Relative MIC [2, 11]: 128
Relative MIC (log10) [2, 12]: 2.107
Relative MIC [2, 13]: 64
Relative MIC [2, 14]: 128
Relative MIC (log10) ([2]; KP-SEN (Klebsiella pneumoniae ATCC 10031), evolved line 9 adapted to the named antibiotic): 2.107
Relative MIC ([2]; KP-SEN (Klebsiella pneumoniae ATCC 10031), evolved line 10): 128
Relative MIC ([2]; KP-SEN ATCC 10031, evolved line 1, evolved line vs ancestor): 128
Relative MIC ([2]; KP-SEN ATCC 10031, evolved line 2, evolved line vs ancestor): 128
Relative MIC ([2]; KP-SEN ATCC 10031, evolved line 3, evolved line vs ancestor): 64
Relative MIC ([2]; KP-SEN ATCC 10031, evolved line 4, evolved line vs ancestor): 64
Relative MIC ([2]; KP-SEN ATCC 10031, evolved line 5, evolved line vs ancestor): 128
Relative MIC ([2]; KP-SEN ATCC 10031, evolved line 6, evolved line vs ancestor): 128
Relative MIC ([2]; KP-SEN ATCC 10031, evolved line 7, evolved line vs ancestor): 32
Relative MIC ([2]; KP-SEN ATCC 10031, evolved line 8, evolved line vs ancestor): 64
Relative MIC ([2]; KP-SEN ATCC 10031, evolved line 9, evolved line vs ancestor): 128
Relative MIC ([2]; KP-SEN ATCC 10031, evolved line 10, evolved line vs ancestor): 128
Relative MIC [2, 15]: 128
Relative MIC [2, 16]: 32
MIC of ancestor ([3]; Acinetobacter baumannii ATCC 17978 (AB-SEN), ancestor): 0.5 µg/mL
MIC of ancestor [3, 17]: 0.5 µg/mL
MIC [3, 18]: 0.5 µg/mL
MIC [3, 19]: 16 µg/mL

CC[C@H](C)CCCCC(=O)N[C@@H](CCN)C(=O)N[C@H](C(=O)N[C@@H](CCN)C(=O)N[C@H]1CCNC(=O)[C@H]([C@@H](C)O)NC(=O)[C@H](CCN)NC(=O)[C@H](CCN)NC(=O)[C@H](CC(C)C)NC(=O)[C@@H](Cc2ccccc2)NC(=O)[C@H](CCN)NC1=O)[C@@H](C)O [Polymyxin B] (X2-[Dab]T[Dab][Dab][Dab][dF]L[Dab][Dab]T; lactam 4-C (inferred); N-terminus assumed)
MIC ([1]; Pseudomonas aeruginosa ATCC BAA-3107 (PA-SEN)): 1 µg/mL
MIC ([1]; Pseudomonas aeruginosa LESB 58 (PA-MDR)): 2 µg/mL
Relative MIC (log10) ([2]; KP-MDR (Klebsiella pneumoniae ATCC 700603), evolved line 3): 2.408 log10
Relative MIC (log10) ([2]; KP-MDR (Klebsiella pneumoniae ATCC 700603), evolved line 5): 2.408 log10
Relative MIC (log10) ([2]; KP-MDR (Klebsiella pneumoniae ATCC 700603), evolved line 6): 2.408 log10
Relative MIC (log10) ([2]; KP-MDR (Klebsiella pneumoniae ATCC 700603), evolved line 9): 2.408 log10
Relative MIC (log10) ([2]; KP-MDR (Klebsiella pneumoniae ATCC 700603), evolved line 10): 2.408 log10
Relative MIC (log10) [2, 6]: 2.408 log10
Relative MIC (log10) [2, 7]: 2.709 log10
Relative MIC (log10) [2, 9]: 2.709 log10
Relative MIC (log10) [2, 14]: 2.709 log10
Relative MIC (log10) [2, 15]: 2.709 log10
MIC ([3]; Acinetobacter baumannii ATCC 17978 (AB-SEN)): 1 µg/mL
MIC ([3]; Acinetobacter baumannii ATCC BAA-1605 (AB-MDR)): 1 µg/mL
